Consider 28 compounds from patent US7851474B2, “Dipiperazinyl ketones and related analogues” (Neurogen Corporation, priority 2005, dated 2010).

Where only a bound is given, the exact number is not on record here.

T1 sequence (Q9Y5N1 with tags, fused parts or gaps E19D): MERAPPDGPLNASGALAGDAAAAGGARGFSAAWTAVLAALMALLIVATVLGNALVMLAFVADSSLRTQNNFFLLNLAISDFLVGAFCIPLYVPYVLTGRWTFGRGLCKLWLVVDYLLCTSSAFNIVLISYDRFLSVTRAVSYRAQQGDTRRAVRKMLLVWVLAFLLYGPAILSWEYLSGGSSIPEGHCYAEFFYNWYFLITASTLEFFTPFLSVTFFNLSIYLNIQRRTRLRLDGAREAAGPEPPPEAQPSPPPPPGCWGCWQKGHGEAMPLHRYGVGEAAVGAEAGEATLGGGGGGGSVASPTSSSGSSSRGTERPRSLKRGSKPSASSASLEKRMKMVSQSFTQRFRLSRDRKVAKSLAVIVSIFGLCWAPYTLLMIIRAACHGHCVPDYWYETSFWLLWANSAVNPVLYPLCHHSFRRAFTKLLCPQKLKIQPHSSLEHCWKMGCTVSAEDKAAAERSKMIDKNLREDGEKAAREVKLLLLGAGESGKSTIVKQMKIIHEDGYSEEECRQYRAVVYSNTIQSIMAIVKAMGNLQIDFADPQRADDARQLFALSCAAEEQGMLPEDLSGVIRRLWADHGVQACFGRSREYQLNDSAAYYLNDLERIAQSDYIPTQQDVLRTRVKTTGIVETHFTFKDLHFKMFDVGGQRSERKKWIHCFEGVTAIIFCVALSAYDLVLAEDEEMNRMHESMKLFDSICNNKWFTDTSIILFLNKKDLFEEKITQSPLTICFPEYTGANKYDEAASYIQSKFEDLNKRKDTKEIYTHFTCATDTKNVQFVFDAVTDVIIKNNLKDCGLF

The first test has as its target T1, chimeric human H3 receptor (Homo sapiens, UniProt Q9Y5N1, E19D).
T1 construct: made in house; host or cells: Sf9 insect cells (baculovirus infection); P2 membrane preparation
Description: Chimeric human H3 receptor screening GTP binding assay (inhibition of histamine-stimulated GTP-gamma35S binding, Example 8). Conditions: 1 h; Table II "Ki", symbol "+": assay described in Example 8; read-out: percent inhibition of agonist-induced GTP-gammaS binding to H3. Format: biochemical. The essentials:
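Sf9 membranes co-expressing the chimeric receptor and a heterotrimeric G-protein (35 μg protein) in Tris pH 7.4 buffer with 10 μM GDP; compound at 4 μM plus 1 μM histamine, 125 pM GTP-gamma35S, 60 min at room temperature. Filter-bound radioactivity read; non-specific binding defined with 10 uM GTP-gammaS; percent inhibition of histamine signal.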
Background: Binding of GTPγS marks nucleotide exchange on a G protein.
On to `CC(C)Oc1ccc(C(=O)N2CCN(CC(=O)N3CCN(C4CCC4)CC3)CC2)cc1` [Compound 776, 1-cyclobutyl-4-{[4-(4-isopropoxybenzoyl)piperazin-1-yl]acetyl}piperazine], for which the inhibition at 4 µM was over 90%.

For `CC(C)c1ccc(C(=O)N2CCN(CC(=O)N3CCN(C4CCC4)CC3)CC2)cc1` [Compound 777, 1-cyclobutyl-4-{[4-(4-isopropylbenzoyl)piperazin-1-yl]acetyl}piperazine], the inhibition at 4 µM is over 90%.

Regarding `Cc1ccc(C(=O)N2CCN(CC(=O)N3CCN(C4CCC4)CC3)CC2)cc1` [Compound 783, 1-cyclobutyl-4-{[4-(4-methylbenzoyl)piperazin-1-yl]acetyl}piperazine], the inhibition at 4 µM is over 90%.

With `CCCOc1ccc(C(=O)N2CCN(CC(=O)N3CCN(C4CCC4)CC3)CC2)cc1` [Compound 788, 1-cyclobutyl-4-{[4-(4-propoxybenzoyl)piperazin-1-yl]acetyl}piperazine], the inhibition at 4 µM is over 90%.

`CCCc1ccc(C(=O)N2CCN(CC(=O)N3CCN(C4CCC4)CC3)CC2)cc1` [Compound 790, 1-cyclobutyl-4-{[4-(4-propylbenzoyl)piperazin-1-yl]acetyl}piperazine]: the inhibition at 4 µM was over 90%.

As to `O=C(CN1CCN(C(=O)C(c2ccccc2)c2ccccc2)CC1)N1CCN(C2CCC2)CC1` [Compound 794, 1-cyclobutyl-4-{[4-(diphenylacetyl)piperazin-1-yl]acetyl}piperazine], the inhibition at 4 µM is over 90%.

As for `O=C(CN1CCN(C(=O)c2ccno2)CC1)N1CCN(C2CCC2)CC1` [Compound 795, 1-cyclobutyl-4-{[4-(isoxazol-5-ylcarbonyl)piperazin-1-yl]acetyl}piperazine], the inhibition at 4 µM was over 90%.

On to `Cc1cc(C)c(C(=O)N2CCN(CC(=O)N3CCN(C4CCC4)CC3)CC2)c(C)c1` [Compound 796, 1-cyclobutyl-4-{[4-(mesitylcarbonyl)piperazin-1-yl]acetyl}piperazine], for which the inhibition at 4 µM was over 90%.

Consider `O=C(COc1ccccc1)N1CCN(CC(=O)N2CCN(C3CCC3)CC2)CC1` [Compound 797, 1-cyclobutyl-4-{[4-(phenoxyacetyl)piperazin-1-yl]acetyl}piperazine], for which the inhibition at 4 µM was over 90%.

On to `O=C(Cc1ccccc1)N1CCN(CC(=O)N2CCN(C3CCC3)CC2)CC1` [Compound 798, 1-cyclobutyl-4-{[4-(phenylacetyl)piperazin-1-yl]acetyl}piperazine], for which the inhibition at 4 µM was over 90%.

For `O=C(CN1CCN(C(=O)c2ccccn2)CC1)N1CCN(C2CCC2)CC1` [Compound 799, 1-cyclobutyl-4-{[4-(pyridin-2-ylcarbonyl)piperazin-1-yl]acetyl}piperazine], the inhibition at 4 µM was over 90%.

For `O=C(CN1CCN(C(=O)c2cccnc2)CC1)N1CCN(C2CCC2)CC1` [Compound 800, 1-cyclobutyl-4-{[4-(pyridin-3-ylcarbonyl)piperazin-1-yl]acetyl}piperazine], the inhibition at 4 µM is over 90%.

With `CCC(C)N1CCN(C(=O)CN2CCN(C(=O)C3CCCO3)CC2)CC1` (stereo not shown) [Compound 886, 1-sec-butyl-4-{[4-(tetrahydrofuran-2-ylcarbonyl)piperazin-1-yl]acetyl}piperazine], the inhibition at 4 µM is over 90%.

On to `Cn1c(C(=O)N2CCN(CC(=O)N3CCN(C4CCC4)CC3)CC2)cc2ccccc21` [Compound 887, 2-({4-[2-(4-cyclobutylpiperazin-1-yl)-2-oxoethyl]piperazin-1-yl}carbonyl)-1-methyl-1H-indole], for which the inhibition at 4 µM is over 90%.

Regarding `CCn1c(C(=O)N2CCN(CC(=O)N3CCN(C4CCC4)CC3)CC2)cc2ccccc21` [Compound 888, 2-({4-[2-(4-cyclobutylpiperazin-1-yl)-2-oxoethyl]piperazin-1-yl}carbonyl)-1-ethyl-1H-indole], the inhibition at 4 µM was over 90%.

Turning to `CCCn1c(C(=O)N2CCN(CC(=O)N3CCN(C4CCC4)CC3)CC2)cc2ccccc21` [Compound 889, 2-({4-[2-(4-cyclobutylpiperazin-1-yl)-2-oxoethyl]piperazin-1-yl}carbonyl)-1-propyl-1H-indole], the inhibition at 4 µM is over 90%.

Regarding `Nc1ccccc1C(=O)N1CCN(CC(=O)N2CCN(C3CCC3)CC2)CC1` [Compound 890, 2-({4-[2-(4-cyclobutylpiperazin-1-yl)-2-oxoethyl]piperazin-1-yl}carbonyl)aniline], the inhibition at 4 µM was over 90%.

On to `CNc1ccccc1C(=O)N1CCN(CC(=O)N2CCN(C3CCC3)CC2)CC1` [Compound 891, 2-({4-[2-(4-cyclobutylpiperazin-1-yl)-2-oxoethyl]piperazin-1-yl}carbonyl)-N-methylaniline], for which the inhibition at 4 µM is over 90%.

Take `Cc1cccc(C(=O)N2CCN(CC(=O)N3CCN(C4CCC4)CC3)CC2)c1N` [Compound 892, 2-({4-[2-(4-cyclobutylpiperazin-1-yl)-2-oxoethyl]piperazin-1-yl}carbonyl)-6-methylaniline]: the inhibition at 4 µM is over 90%.

For `Cc1ccc(N)c(C(=O)N2CCN(CC(=O)N3CCN(C4CCC4)CC3)CC2)c1` [Compound 893, 2-({4-[2-(4-cyclobutylpiperazin-1-yl)-2-oxoethyl]piperazin-1-yl}carbonyl)-4-methylaniline], the inhibition at 4 µM was over 90%.

As for `Cc1cnc(C(=O)N2CCN(CC(=O)N3CCN(C4CCC4)CC3)CC2)cn1` [Compound 894, 2-({4-[2-(4-cyclobutylpiperazin-1-yl)-2-oxoethyl]piperazin-1-yl}carbonyl)-5-methylpyrazine], the inhibition at 4 µM was over 90%.

Staying with this test, now noted: 1 h; Table II, "+" in the column headed Ki; assay of Example 8; read-out: percent inhibition of agonist-induced GTP-gammaS binding to H3.
Consider `COc1cccc(C(=O)N2CCN(CC(=O)N3CCN(C4CCC4)CC3)CC2)c1` [Compound 757, 1-cyclobutyl-4-{[4-(3-methoxybenzoyl)piperazin-1-yl]acetyl}piperazine], for which the inhibition at 4 µM is over 90%.

Regarding `CC(C)C(C(=O)N1CCN(CC(=O)N2CCN(C3CCC3)CC2)CC1)c1ccccc1` (stereo not shown) [Compound 760, 1-cyclobutyl-4-{[4-(3-methyl-2-phenylbutanoyl)piperazin-1-yl]acetyl}piperazine], the inhibition at 4 µM is over 90%.

As to `Cc1cccc(C(=O)N2CCN(CC(=O)N3CCN(C4CCC4)CC3)CC2)c1` [Compound 761, 1-cyclobutyl-4-{[4-(3-methylbenzoyl)piperazin-1-yl]acetyl}piperazine], the inhibition at 4 µM was over 90%.

Turning to `O=C(CN1CCN(C(=O)c2cccc(Oc3ccccc3)c2)CC1)N1CCN(C2CCC2)CC1` [Compound 764, 1-cyclobutyl-4-{[4-(3-phenoxybenzoyl)piperazin-1-yl]acetyl}piperazine], the inhibition at 4 µM is over 90%.

For `O=C(CN1CCN(C(=O)c2ccsc2)CC1)N1CCN(C2CCC2)CC1` [Compound 765, 1-cyclobutyl-4-{[4-(3-thienylcarbonyl)piperazin-1-yl]acetyl}piperazine], the inhibition at 4 µM is over 90%.

`Cc1cc(C(=O)N2CCN(CC(=O)N3CCN(C4CCC4)CC3)CC2)oc1C` [Compound 766, 1-cyclobutyl-4-{[4-(4,5-dimethyl-2-furoyl)piperazin-1-yl]acetyl}piperazine]: the inhibition at 4 µM is over 90%.

For `O=C(CN1CCN(C(=O)c2ccc(F)cc2)CC1)N1CCN(C2CCC2)CC1` [Compound 772, 1-cyclobutyl-4-{[4-(4-fluorobenzoyl)piperazin-1-yl]acetyl}piperazine], the inhibition at 4 µM is over 90%.

By inhibition is commonly meant the share of the control response that was lost under treatment.
